Data on 27 compounds can be found in patent US8202879B2, “Quinazoline derivatives having tyrosine kinase inhibitory activity” (Shionogi & Co., Ltd., priority 2005, dated 2012).

The structures appear in SMILES notation. Like-named read-outs stand apart in the source and are kept apart here.

The target in one assay is T1, HER2 (Homo sapiens, UniProt P04626).
T1 construct: purchased Carna Biosciences, Inc; host or cells: insect cell expression system
The assay can be described thus: Enzyme inhibitory activity on HER2 (time resolution fluorescence, biotinylated poly-Glu-Tyr substrate). The class given is biochemical. In a few lines: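 Insect-cell-expressed HER2 (1000 ng/ml working stock) with biotinylated poly-Glu-Tyr (4:1; 3.125 μg/ml stock) and ATP (290 μM solution) in TBS with MgCl2, MnCl2, Na3VO4 and BSA, 60 min at room temperature. 10-point 4-fold dilutions from a 1 mM top solution. Phosphotyrosine detected by TR-FRET with Eu-antibody and streptavidin-XL.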

The test system of a further assay is BT-474. The assay can be described thus: In vitro cell proliferation inhibition, WST assay. As to conditions: BT-474 cells, cultured for 3 days, read-out: BT-474 (nM) proliferation inhibitory activity (IC50 value). The class given is cell-based, human. As for the experimental part: Test of In Vitro Cell Proliferation Inhibition of Test Compound
As a human-derived cancer cell strain, BT-474 was used. Cells were all cultured in a 37° C., 5% CO2 incubator in a medium in which 10% bovine fetal serum (ICN) and 50 units ml penicillin/60 μg/ml streptomycin solution (GIBCO) were added to Dulbecco's Modified Essential Medium (DMEM, Nacalai Tesque, Inc).

For assay [1], the system named is NCI-N87 cells (human stomach cancer cell strain). The assay is described as follows: in vivo anti-tumor assessment, NCI-N87 cells transplanted into mammary fat pad of nude mouse. As for the experimental part:
NCI-N87 cells (human stomach cancer cell strain) were transplanted into a mammary fat pad of a female nude mouse (BALB/cA Jcl-nu/nu, CLEA Japan, Inc) at 5×10^6 cells/mouse (day 0). On day 5, a long diameter and a short diameter of a tumor were measured with a caliper, and mice were divided into groups (N=6) so that a tumor size between groups became equal. A test compound (20, 80 mg/kg) suspended in a 0.5% methylcellulose (MC) solution was orally administered from day 5 on for 15 consecutive days, and the anti-tumor effect was expressed by a ratio (T/C %) of an average value of a tumor size between a compound-administered group (T) and a control (C, 0.5% MC) group on day 20.
Results of in vivo anti-tumor assessment of a compound VIII-11 are shown in Table 54, and results of in vivo anti-tumor assessment of a compound VIII-66 are shown in Table 55.

Another assay addresses T2, EGFR (Homo sapiens, UniProt P00533).
T2 construct: purchased Carna Biosciences, Inc; host or cells: insect cell expression system
The assay can be described thus: Enzyme inhibitory activity on EGFR (time resolution fluorescence, biotinylated poly-Glu-Tyr substrate). The class given is biochemical. In a few lines: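 Insect-cell-expressed EGFR phosphorylated biotinylated poly-Glu-Tyr (4:1) for 60 min at room temperature in TBS with MgCl2, MnCl2, Na3VO4 and BSA. Enzyme 250 ng/ml, substrate 3.125 μg/ml and ATP 125 μM as working solutions. EDTA stop; Eu anti-phosphotyrosine/streptavidin-XL time-resolved fluorescence read; 10-point 4-fold dilutions.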

The mark [2] stands for this setting: HER2 purified from insect cell expression system, ATP solution 290 μM, room temperature, 60 minutes.
[3] abbreviates: day 5 (start of administration, grouping), 20 mg/kg administrated group, oral, N=6.
The mark [4] stands for this setting: day 5 (start of administration, grouping), 80 mg/kg administrated group, oral, N=6.
Where [5] appears, read: day 20, 20 mg/kg orally for 15 consecutive days from day 5.
Where [6] appears, read: day 20, 80 mg/kg orally for 15 consecutive days from day 5.
Where [7] appears, read: EGFR purified from insect cell expression system, ATP solution 125 μM, room temperature, 60 minutes.
[8] abbreviates: enzyme reaction at room temperature for 60 minutes.

T2 sequence (P00533 25-1210): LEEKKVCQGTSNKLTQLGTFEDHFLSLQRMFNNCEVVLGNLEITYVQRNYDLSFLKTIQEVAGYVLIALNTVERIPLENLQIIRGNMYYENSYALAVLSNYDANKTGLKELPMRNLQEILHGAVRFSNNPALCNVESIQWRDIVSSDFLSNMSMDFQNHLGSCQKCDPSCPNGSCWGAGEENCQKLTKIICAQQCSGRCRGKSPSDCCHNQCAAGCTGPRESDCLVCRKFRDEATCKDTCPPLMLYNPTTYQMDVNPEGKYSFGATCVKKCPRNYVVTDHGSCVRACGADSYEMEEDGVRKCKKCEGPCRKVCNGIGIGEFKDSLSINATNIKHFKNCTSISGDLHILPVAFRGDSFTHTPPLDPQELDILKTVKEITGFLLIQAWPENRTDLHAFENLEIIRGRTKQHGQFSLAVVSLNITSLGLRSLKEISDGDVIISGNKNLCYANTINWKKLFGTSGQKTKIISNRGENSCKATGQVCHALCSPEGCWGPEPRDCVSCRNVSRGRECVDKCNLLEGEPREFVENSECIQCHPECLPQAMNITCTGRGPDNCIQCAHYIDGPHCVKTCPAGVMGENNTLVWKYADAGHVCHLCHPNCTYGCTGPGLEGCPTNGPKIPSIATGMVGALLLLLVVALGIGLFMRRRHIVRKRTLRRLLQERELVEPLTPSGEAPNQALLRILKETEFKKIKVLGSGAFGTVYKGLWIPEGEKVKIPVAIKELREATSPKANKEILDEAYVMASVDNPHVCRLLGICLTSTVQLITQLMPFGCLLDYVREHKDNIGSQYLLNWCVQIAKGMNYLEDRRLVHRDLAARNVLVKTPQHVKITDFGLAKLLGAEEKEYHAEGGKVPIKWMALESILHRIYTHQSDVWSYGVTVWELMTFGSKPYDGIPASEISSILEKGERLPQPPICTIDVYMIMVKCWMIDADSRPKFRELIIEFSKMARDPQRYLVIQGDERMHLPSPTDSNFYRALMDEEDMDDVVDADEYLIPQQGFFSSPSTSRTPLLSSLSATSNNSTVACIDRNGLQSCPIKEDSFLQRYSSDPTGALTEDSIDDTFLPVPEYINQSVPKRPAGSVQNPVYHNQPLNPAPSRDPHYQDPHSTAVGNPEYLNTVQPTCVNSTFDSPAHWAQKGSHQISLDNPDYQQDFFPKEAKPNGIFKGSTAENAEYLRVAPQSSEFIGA
T1 sequence (P04626 23-1255): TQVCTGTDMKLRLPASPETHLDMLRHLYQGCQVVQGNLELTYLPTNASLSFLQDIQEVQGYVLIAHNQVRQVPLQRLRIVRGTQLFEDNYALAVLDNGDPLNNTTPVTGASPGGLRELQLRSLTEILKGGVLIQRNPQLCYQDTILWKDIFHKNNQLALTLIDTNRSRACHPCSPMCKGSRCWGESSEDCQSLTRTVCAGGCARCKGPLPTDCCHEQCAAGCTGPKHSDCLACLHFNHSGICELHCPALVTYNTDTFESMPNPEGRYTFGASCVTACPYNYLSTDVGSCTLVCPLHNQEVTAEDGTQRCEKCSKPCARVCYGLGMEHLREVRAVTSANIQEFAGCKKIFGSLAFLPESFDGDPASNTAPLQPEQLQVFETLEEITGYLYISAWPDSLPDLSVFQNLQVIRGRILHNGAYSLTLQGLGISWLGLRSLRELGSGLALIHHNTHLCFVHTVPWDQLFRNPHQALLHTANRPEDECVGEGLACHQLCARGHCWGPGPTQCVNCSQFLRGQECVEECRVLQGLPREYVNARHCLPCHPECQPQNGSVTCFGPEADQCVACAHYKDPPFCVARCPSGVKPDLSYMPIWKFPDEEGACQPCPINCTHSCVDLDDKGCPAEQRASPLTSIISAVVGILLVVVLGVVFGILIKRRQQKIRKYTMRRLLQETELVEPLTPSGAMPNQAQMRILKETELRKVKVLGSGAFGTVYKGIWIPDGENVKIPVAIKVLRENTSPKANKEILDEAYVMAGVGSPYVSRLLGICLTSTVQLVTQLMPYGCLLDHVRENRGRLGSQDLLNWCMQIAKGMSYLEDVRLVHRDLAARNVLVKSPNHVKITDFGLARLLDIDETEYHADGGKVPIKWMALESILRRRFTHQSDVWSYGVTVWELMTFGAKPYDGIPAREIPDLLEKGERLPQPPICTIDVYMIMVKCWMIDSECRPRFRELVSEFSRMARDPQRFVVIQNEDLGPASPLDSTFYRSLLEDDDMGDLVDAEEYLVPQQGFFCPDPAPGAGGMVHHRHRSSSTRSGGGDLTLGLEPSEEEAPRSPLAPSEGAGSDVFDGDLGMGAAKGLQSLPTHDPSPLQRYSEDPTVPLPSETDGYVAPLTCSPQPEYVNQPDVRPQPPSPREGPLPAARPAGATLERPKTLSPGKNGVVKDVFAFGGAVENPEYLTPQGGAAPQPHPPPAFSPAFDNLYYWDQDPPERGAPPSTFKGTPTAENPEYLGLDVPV

As to `CC#C/C(=N\OCCN1CCCC1)c1ccc2ncnc(Nc3ccc(OCc4cccc(F)c4)c(Cl)c3)c2c1` [VIII-11], the IC50 came out at 45 nM against HER2 (setting [2]); 26 nM in the assay with BT-474 (Homo sapiens, BT-474, 72 h); 43 nM at EGFR (setting [7]). Besides, the “Mean of tumor size” value is 197 mm^3 in assay [1] (setting [3]), 197 mm^3 in assay [1] (setting [4]), 356 mm^3 in assay [1] (setting [5]) and 193 mm^3 in assay [1] (setting [6]). Besides, the “T/C % (ratio of average tumor size, compound-administered group vs control group)” value in assay [1] (setting [5]) is 54%; in assay [1] (setting [6]) it was 29%.

Regarding `CC#C/C(=N\OCCN(C)CCO)c1ccc2ncnc(Nc3ccc(OCc4cccc(F)c4)c(Cl)c3)c2c1.Cl.Cl` [VIII-66], the IC50 at HER2 (setting [2]) turned out to be 43 nM; in the assay on BT-474, 8 nM; against EGFR (setting [7]) it was 27 nM. Besides, the “Mean of tumor size” value in assay [1] (setting [3]) is on record as 134 mm^3; in assay [1] (setting [4]) it was 150 mm^3; in assay [1] (setting [5]) it was 154 mm^3; in assay [1] (setting [6]), 17 mm^3. Also, the “T/C % (ratio of average tumor size, compound-administered group vs control group)” value stood at 32% in assay [1] (setting [5]) and 4% in assay [1] (setting [6]).

For the compound `CC#C/C(=N\OCCN(CC)CCOC)c1ccc2ncnc(Nc3ccc4c(cnn4Cc4cccc(F)c4)c3)c2c1` [VIII-192], the IC50 at HER2 (setting [8]) turned out to be 14.2 nM; in the assay on BT-474 (Homo sapiens, BT-474, 72 h), 24 nM; at EGFR (setting [8]) it was 6.2 nM.

For the compound `CC#C/C(=N\OCCN1CC[C@@H](OC(N)=O)C1)c1ccc2ncnc(Nc3ccc4c(cnn4Cc4cccc(F)c4)c3)c2c1` [VIII-193], the IC50 at HER2 (setting [8]) worked out at 15 nM; with BT-474 (Homo sapiens, BT-474, 72 h) it was 25 nM; against EGFR (setting [8]), 14 nM.

Turning to `CC#C/C(=N\OC[C@@H]1C[C@H](O)CN1)c1ccc2ncnc(Nc3ccc4c(cnn4Cc4cccc(F)c4)c3)c2c1` [VIII-194], the IC50 at HER2 (setting [8]) came out at 13 nM; in the assay on BT-474 it was 25 nM; against EGFR (setting [8]) it was 8.6 nM.

For the compound `CC#C/C(=N\OCCN1CCOCC1)c1ccc2ncnc(Nc3ccc4c(cnn4Cc4cccc(F)c4)c3)c2c1` [VIII-195], the IC50 on HER2 (setting [8]) was determined as 43 nM; with BT-474 (Homo sapiens, BT-474, 72 h) it was 29 nM; against EGFR (setting [8]), 45 nM.

Take `CC#C/C(=N\OCCN1CCNC(=O)C1)c1ccc2ncnc(Nc3ccc4c(cnn4Cc4cccc(F)c4)c3)c2c1` [VIII-196]: the IC50 against HER2 (setting [8]) worked out at 20 nM; in the assay on BT-474 (Homo sapiens, BT-474, 72 h) it was 28 nM; against EGFR (setting [8]) it was 11 nM.

Regarding `CC#C/C(=N\OC[C@@H]1COCCN1)c1ccc2ncnc(Nc3ccc4c(cnn4Cc4cccc(F)c4)c3)c2c1` [VIII-197], the IC50 on HER2 (setting [8]) was determined as 21 nM; in the assay on BT-474 (Homo sapiens, BT-474, 72 h), 14 nM; at EGFR (setting [8]), 9 nM.

As for `CC#CC(=NOCC1CNCCN1)c1ccc2ncnc(Nc3ccc4c(cnn4Cc4cccc(F)c4)c3)c2c1` (stereo not drawn) [VIII-198], the IC50 against HER2 (setting [8]) amounted to 4.6 nM; with BT-474 (Homo sapiens, BT-474, 72 h) it was 10 nM; against EGFR (setting [8]) it was 3.6 nM.

For `CNCCO/N=C(\C#CCOC)c1ccc2ncnc(Nc3ccc4c(cnn4Cc4cccc(F)c4)c3)c2c1` [VIII-199], the IC50 was 5.2 nM against HER2 (setting [8]); 33 nM in the assay with BT-474 (Homo sapiens, BT-474, 72 h); 6.3 nM against EGFR (setting [8]).

In the case of `CC#C/C(=N\OC[C@@H](COC)NC)c1ccc2ncnc(Nc3ccc(S(=O)(=O)c4ccccc4)cc3)c2c1` [VIII-205], the IC50 against HER2 (setting [8]) came out at 13 nM; in the assay on BT-474 (Homo sapiens, BT-474, 72 h), 31 nM; against EGFR (setting [8]) it was 17 nM.

Regarding `CC#C/C(=N\OC[C@@H]1COCCN1)c1ccc2ncnc(Nc3ccc(S(=O)(=O)c4ccccc4)cc3)c2c1` [VIII-207], the IC50 at HER2 (setting [8]) stood at 17 nM; with BT-474 (Homo sapiens, BT-474, 72 h), 68 nM; against EGFR (setting [8]) it was 21 nM.

With `CNCCO/N=C(\C#CCOC)c1ccc2ncnc(Nc3ccc(S(=O)(=O)c4ccccc4)cc3)c2c1` [VIII-208], the IC50 amounted to 23 nM at HER2 (setting [8]); 27 nM in the assay with BT-474 (Homo sapiens, BT-474, 72 h); 28 nM against EGFR (setting [8]).

In the case of `COCC#C/C(=N\OC[C@@H]1COCCN1)c1ccc2ncnc(Nc3ccc(S(=O)(=O)c4ccccc4)cc3)c2c1` [VIII-209], the IC50 turned out to be 30 nM on HER2 (setting [8]); 19 nM with BT-474 (Homo sapiens, BT-474, 72 h); 38 nM against EGFR (setting [8]).

`CC#C/C(=N\OCCNC)c1ccc2ncnc(Nc3ccc(Oc4ccc(C)nc4)c(C)c3)c2c1` [VIII-210]: the IC50 on HER2 (setting [8]) came to 14 nM; in the assay on BT-474 (Homo sapiens, BT-474, 72 h), 31 nM; on EGFR (setting [8]) it was 42 nM.

As for `CC#C/C(=N\OCCNC)c1ccc2ncnc(Nc3ccc(COc4cccc(F)c4)c(Cl)c3)c2c1` [VIII-211], the IC50 at HER2 (setting [8]) is 18 nM; in the assay with BT-474 (Homo sapiens, BT-474, 72 h), 16 nM; at EGFR (setting [8]) it was 23 nM.

In the case of `CC#C/C(=N\OCCNC)c1ccc2ncnc(Nc3ccc(Sc4ccccc4)cc3)c2c1` [VIII-213], the IC50 came to 25 nM at HER2 (setting [8]); 33 nM with BT-474 (Homo sapiens, BT-474, 72 h); 18 nM against EGFR (setting [8]).

Take `CC#C/C(=N\OCCNC)c1ccc2ncnc(Nc3ccc(S(=O)(=O)c4ccccc4)cc3)c2c1` [VIII-214]: the IC50 at HER2 (setting [8]) amounted to 3.3 nM; in the assay with BT-474 (Homo sapiens, BT-474, 72 h), 25 nM; on EGFR (setting [8]), 4.5 nM.

Turning to `CC#C/C(=N\OCCNC)c1ccc2ncnc(Nc3ccc(OCc4cccnc4)c(Cl)c3)c2c1` [VIII-216], the IC50 against HER2 (setting [8]) amounted to 7 nM; in the assay on BT-474 (Homo sapiens, BT-474, 72 h) it was 32 nM; on EGFR (setting [8]), 22 nM.

Turning to `CC#C/C(=N\OCC1COCCN1)c1ccc2ncnc(Nc3ccc(Oc4ccc(C)nc4)c(C)c3)c2c1` (stereo not drawn) [VIII-218], the IC50 against HER2 (setting [8]) is 22 nM; with BT-474 (Homo sapiens, BT-474, 72 h), 41 nM; against EGFR (setting [8]), 76 nM.

As to `CC#C/C(=N\OCC1COCCN1)c1ccc2ncnc(Nc3ccc(S(=O)(=O)c4ccccc4)cc3)c2c1` (stereo not drawn) [VIII-219], the IC50 against HER2 (setting [8]) stood at 20 nM; in the assay with BT-474 (Homo sapiens, BT-474, 72 h), 45 nM; against EGFR (setting [8]), 26 nM.

Regarding `CC#C/C(=N\OCC1COCCN1)c1ccc2ncnc(Nc3ccc(COc4cccc(F)c4)c(Cl)c3)c2c1` (stereo not drawn) [VIII-220], the IC50 against HER2 (setting [8]) is 449 nM; in the assay with BT-474 (Homo sapiens, BT-474, 72 h), 23 nM; on EGFR (setting [8]) it was 263 nM.

With `CC#C/C(=N\OCC1COCCN1)c1ccc2ncnc(Nc3ccc(COc4cccc(F)c4)c(Cl)c3)c2c1` (stereo not drawn) [VIII-221], the IC50 is 168 nM against HER2 (setting [8]), 15 nM in the assay with BT-474 and 143 nM at EGFR (setting [8]).

Consider `CC#C/C(=N\OCC(N)=O)c1ccc2ncnc(Nc3ccc(OCc4cccc(F)c4)c(Cl)c3)c2c1` [VIII-223], for which the IC50 came out at 217 nM at HER2 (setting [8]); 6 nM with BT-474 (Homo sapiens, BT-474, 72 h); 253 nM at EGFR (setting [8]).

`CC#C/C(=N\OCC(=O)NCCO)c1ccc2ncnc(Nc3ccc(OCc4cccc(F)c4)c(Cl)c3)c2c1` [VIII-224]: the IC50 is 118 nM against HER2 (setting [8]); 1.2 nM in the assay on BT-474 (Homo sapiens, BT-474, 72 h); 122 nM on EGFR (setting [8]).

`CC#C/C(=N\OCC(=O)NCCOS(C)(=O)=O)c1ccc2ncnc(Nc3ccc(OCc4cccc(F)c4)c(Cl)c3)c2c1` [VIII-225]: the IC50 against HER2 (setting [8]) worked out at 70 nM; in the assay on BT-474 (Homo sapiens, BT-474, 72 h) it was 7 nM; on EGFR (setting [8]), 47 nM.

For `CC#C/C(=N\OCC(=O)NCCN(C)C)c1ccc2ncnc(Nc3ccc(OCc4cccc(F)c4)c(Cl)c3)c2c1` [VIII-226], the IC50 turned out to be 10 nM against HER2 (setting [8]); 5 nM with BT-474 (Homo sapiens, BT-474, 72 h); 20 nM against EGFR (setting [8]).
